± gives the standard deviation of the averaged measurements.
What was measured:
Experiment in all cases: level (log10 ratio to DMSO vehicle control); higher = higher biomarker level / cell amount than vehicle control
Conditions in all cases: in DMSO
Heptafluorobutyl iodide = compound: FC(F)(F)C(F)(F)C(F)(F)CI [Heptafluorobutyl iodide]
Description: (§1)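 BioMAP Diversity Plus panel of 12 human primary cell co-culture systems (3C, 4H, LPS, SAg, BT, BF4T, BE3C, CASM3C, HDF3CGF, KF3CT, MyoF, Mphg). Compounds were added 1 h before stimulation and left for 24 h (MyoF 48 h; BT 72 h for soluble read-outs or 6 d for IgG). Biomarkers were read by ELISA, cytotoxicity by SRB, PBMC viability and proliferation by Alamar Blue. Each well value was divided by the mean of 8 DMSO control wells on the same plate and log10 transformed; duplicate blinded samples were tested at 4 concentrations.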

[1] = compound: O=S(=O)(Cl)C(F)(F)C(F)(F)C(F)(F)C(F)(F)C(F)(F)C(F)(F)C(F)(F)C(F)(F)F [Perfluoro-1-octanesulfonyl chloride]
Description: as §1

[2] = compound: O=C(O)C(F)(F)C(F)(F)C(F)(F)C(F)(F)C(F)(F)C(F)(F)C(F)(F)C(F)(F)C(F)(F)C(F)F [11-H-Perfluoroundecanoic acid]
Description: as §1

[3] = compound: FC(F)(F)C(F)(F)CNCC(F)(F)C(F)(F)F [Bis(1H,1H-perfluoropropyl)amine]
Description: as §1

[4] = compound: NS(=O)(=O)C(F)(F)C(F)(F)C(F)(F)C(F)(F)C(F)(F)C(F)(F)F [Perfluorohexanesulfonamide]
Description: as §1

Test System | level (log10) (Heptafluorobutyl iodide; 6700 nM) | level (log10) (Heptafluorobutyl iodide; 20000 nM) | level (log10) (Heptafluorobutyl iodide; 60000 nM) | level (log10) ([1]; 6700 nM) | level (log10) ([1]; 20000 nM) | level (log10) ([1]; 60000 nM) | level (log10) ([2]; 6700 nM) | level (log10) ([2]; 20000 nM) | level (log10) ([3]; 6700 nM) | level (log10) ([3]; 20000 nM) | level (log10) ([3]; 60000 nM) | level (log10) ([4]; 6700 nM) | level (log10) ([4]; 20000 nM) | level (log10) ([4]; 60000 nM)
3C:CD142/Tissue Factor | -0.0315 ± 0.019 | 0.0095 ± 0.016 | -0.0155 ± 0.019 | -0.035 ± 0.027 | 0.015 ± 0.013 | 0.0705 ± 0.063 | -0.011 ± 0.011 | -0.0245 ± 0.013 | 0.038 ± 0.05 | -0.0105 ± 0.094 | 0.0165 ± 0.11 | 0.0005 ± 0.0078 | -0.0285 ± 0.032 | -0.0365 ± 0.029
KF3CT:PAI-I | 0.0005 ± 0.0035 | -0.0185 ± 0.016 | -0.008 ± 0.0071 | -0.036 ± 0.014 | -0.116 ± 0.0057 | -0.2505 ± 0.0021 | -0.0025 ± 0.03 | -0.12 ± 0.044 | -0.008 ± 0.03 | -0.0005 ± 0.005 | 0 ± 0.0042 | 0.0045 ± 0.016 | 0.0035 ± 0.021 | -0.0285 ± 0.022
MyoF:PAI-I | -0.0105 ± 0.0021 | -0.005 ± 0.0028 | 0.007 ± 0.023 | -0.018 ± 0.016 | -0.0325 ± 0.016 | -0.0415 ± 0.013 | 0.0105 ± 0.012 | -0.013 ± 0.02 | -0.005 ± 0.011 | 0.007 ± 0.013 | 0.011 ± 0.0014 | 0.021 ± 0.016 | 0.0285 ± 0.021 | 0.0575 ± 0.0078
KF3CT:CD54/ICAM-1 | -0.008 ± 0.0071 | -0.004 ± 0.0028 | -0.012 ± 0.0014 | -0.0055 ± 0.0021 | -0.008 ± 0.0028 | 0.0325 ± 0.016 | -0.0285 ± 0.039 | 0.0945 ± 0.0092 | -0.011 ± 0.011 | -0.008 ± 0.0085 | 0.012 ± 0.018 | -0.0235 ± 0.015 | -0.019 ± 0.0085 | -0.0285 ± 0.025
HDF3CGF:CXCL9/MIG | -0.012 ± 0.0071 | -0.0305 ± 0.016 | -0.022 ± 0.011 | -0.0115 ± 0.019 | -0.0165 ± 0.018 | -0.0005 ± 0.026 | -0.089 ± 0.0099 | -0.222 ± 0.014 | -0.002 ± 0.0028 | -0.0025 ± 0.018 | 0.004 ± 0.024 | 0.0165 ± 0.019 | 0.01 ± 0.028 | -0.061 ± 0.037
3C:CD62E/E-Selectin | -0.012 ± 0.024 | -0.0115 ± 0.0021 | -0.0165 ± 0.03 | -0.017 ± 0.0071 | 0.0135 ± 0.021 | 0.11 ± 0.021 | -0.0045 ± 0.025 | 0.0205 ± 0.013 | -0.0115 ± 0.0092 | -0.0105 ± 0.022 | 0.008 ± 0.024 | -0.0065 ± 0.016 | -0.034 ± 0.0014 | -0.0595 ± 0.013
HDF3CGF:CD54/ICAM-1 | -0.004 ± 0.0028 | 0.0005 ± 0.005 | 0.002 ± 0.0028 | 0.039 ± 0.023 | 0.034 ± 0.051 | 0.0005 ± 0.03 | -0.058 ± 0.0085 | -0.0635 ± 0.0035 | 0.026 ± 0.018 | 0.033 ± 0.0085 | 0.0405 ± 0.018 | -0.005 ± 0.0028 | -0.0155 ± 0.012 | -0.0225 ± 0.005
HDF3CGF:SRB | -0.0315 ± 0.012 | 0.0025 ± 0.037 | 0.0275 ± 0.04 | 0.015 ± 0.021 | -0.0095 ± 0.005 | -0.0345 ± 0.035 | 0.03 ± 0.0014 | 0.111 ± 0.024 | -0.0275 ± 0.0078 | 0.008 ± 0.0014 | 0.0145 ± 0.05 | -0.0045 ± 0.0064 | -0.009 ± 0.052 | -0.002 ± 0.033
MyoF:TIMP-1 | -0.059 ± 0.088 | -0.068 ± 0.068 | -0.0755 ± 0.063 | -0.009 ± 0.044 | 0.0035 ± 0.043 | 0.148 ± 0.031 | 0.0255 ± 0.029 | 0.063 ± 0.0057 | -0.0225 ± 0.039 | 0.0005 ± 0.067 | -0.0035 ± 0.0064 | 0.019 ± 0.037 | 0.017 ± 0.045 | 0.021 ± 0.051
BE3C:Keratin 8/18 | 0.0025 ± 0.0078 | -0.0025 ± 0.00071 | 0.005 ± 0.013 | -0.0025 ± 0.0021 | 0.003 ± 0.0028 | -0.106 ± 0.05 | -0.0125 ± 0.025 | -0.0805 ± 0.019 | -0.008 ± 0.0028 | -0.007 ± 0.0014 | 0.006 ± 0.024 | 0.0065 ± 0.012 | 0.0055 ± 0.033 | -0.033 ± 0.025
KF3CT:CXCL8/IL-8 | -0.0095 ± 0.00071 | -0.0325 ± 0.005 | -0.015 ± 0.016 | 0.006 ± 0.0042 | 0.0095 ± 0.016 | 0.0615 ± 0.025 | 0.0005 ± 0.019 | 0.0445 ± 0.012 | -0.0005 ± 0.005 | -0.0065 ± 0.0092 | 0.0115 ± 0.015 | -0.039 ± 0.023 | -0.0345 ± 0.0092 | -0.0395 ± 0.03
BE3C:SRB | 0.002 ± 0.0028 | -0.003 ± 0.0071 | 0.0035 ± 0.00071 | -0.001 ± 0.0014 | -0.049 ± 0.0057 | -0.659 ± 0.019 | -0.0095 ± 0.0064 | -0.235 ± 0.011 | -0.002 ± 0.0057 | -0.004 | 0.003 ± 0.0071 | -0.0065 ± 0.00071 | -0.022 | -0.058 ± 0.0099
KF3CT:uPA | 0.003 ± 0.0014 | -0.0155 ± 0.011 | -0.014 ± 0.0028 | 0.016 ± 0.017 | 0.0145 ± 0.025 | 0.0055 ± 0.00071 | -0.003 | 0.0055 ± 0.0092 | 0.001 ± 0.013 | 0.0085 ± 0.0092 | 0.012 ± 0.013 | -0.006 ± 0.023 | -0.0215 ± 0.019 | 0.0025 ± 0.022
MyoF:Collagen IV | -0.021 ± 0.0071 | -0.0325 ± 0.016 | -0.0185 ± 0.039 | 0.014 ± 0.011 | 0.052 ± 0.023 | 0.241 ± 0.037 | 0.141 ± 0.0028 | 0.293 ± 0.034 | -0.014 ± 0.03 | -0.0275 ± 0.015 | -0.008 ± 0.03 | 0.0555 ± 0.023 | 0.202 ± 0.025 | 0.408 ± 0.016
KF3CT:MMP-9 | -0.0195 ± 0.035 | -0.0185 ± 0.033 | -0.005 ± 0.021 | -0.0225 ± 0.028 | -0.0155 ± 0.013 | -0.193 ± 0.026 | -0.0735 ± 0.011 | -0.298 ± 0.0071 | -0.024 ± 0.0071 | -0.013 ± 0.035 | 0.001 ± 0.042 | -0.015 ± 0.02 | -0.039 ± 0.03 | -0.093 ± 0.021
KF3CT:IL-1alpha | -0.0025 ± 0.0078 | -0.04 ± 0.0042 | -0.044 ± 0.0057 | -0.013 ± 0.0085 | -0.03 ± 0.02 | -0.055 ± 0.0014 | -0.0255 ± 0.00071 | 0.0105 ± 0.04 | 0.0045 ± 0.022 | -0.013 ± 0.0014 | 0.0005 ± 0.046 | 0.026 ± 0.025 | 0.03 ± 0.028 | 0.052 ± 0.02
BE3C:PAI-I | -0.018 ± 0.017 | -0.027 ± 0.025 | -0.0085 ± 0.016 | 0.0265 ± 0.011 | 0.0055 ± 0.019 | -0.416 ± 0.054 | -0.082 ± 0.018 | -0.367 ± 0.047 | -0.0395 ± 0.00071 | -0.022 ± 0.0057 | -0.0075 ± 0.023 | -0.055 ± 0.062 | -0.087 ± 0.079 | -0.165 ± 0.068
CASM3C:CXCL8/IL-8 | 0.0015 ± 0.012 | -0.014 ± 0.014 | -0.001 ± 0.014 | -0.021 ± 0.0057 | -0.0125 ± 0.013 | 0.015 ± 0.035 | -0.001 ± 0.0057 | -0.011 ± 0.0014 | -0.0065 ± 0.0092 | -0.005 ± 0.014 | 0.003 ± 0.027 | -0.0235 ± 0.0035 | -0.014 ± 0.014 | 0.001 ± 0.0085
KF3CT:CXCL9/MIG | -0.005 ± 0.0014 | -0.008 ± 0.013 | -0.003 ± 0.0071 | -0.0045 ± 0.005 | -0.002 ± 0.0057 | 0.005 ± 0.0042 | -0.006 ± 0.0042 | -0.028 ± 0.0028 | 0.0085 ± 0.016 | -0.001 ± 0.0028 | 0.007 ± 0.011 | 0.0005 ± 0.0035 | -0.0075 ± 0.016 | -0.008 ± 0.0057
CASM3C:CD106/VCAM-1 | -0.023 ± 0.013 | -0.0245 ± 0.019 | -0.028 ± 0.0042 | -0.0395 ± 0.0092 | -0.0455 ± 0.015 | -0.0235 ± 0.032 | -0.016 ± 0.027 | -0.023 ± 0.021 | -0.06 ± 0.024 | -0.0545 ± 0.026 | -0.0105 ± 0.053 | -0.014 ± 0.016 | -0.0285 ± 0.005 | -0.0235 ± 0.0064
HDF3CGF:CXCL8/IL-8 | -0.003 ± 0.0057 | 0.0005 ± 0.00071 | 0.0125 ± 0.0092 | -0.008 ± 0.0014 | 0.0065 ± 0.0092 | 0.0265 ± 0.012 | -0.009 ± 0.0071 | -0.003 ± 0.016 | -0.003 | -0.011 ± 0.0042 | 0.007 ± 0.016 | 0.0015 ± 0.0021 | 0.0035 ± 0.0021 | 0.017 ± 0.013
